Source: publication PMC3626250, “Effects of Borneol on Pharmacokinetics and Tissue Distribution of Notoginsenoside R1 and Ginsenosides Rg1 and Re in Panax notoginseng in Rabbits” (Journal of Analytical Methods in Chemistry, 2013)
Read-outs that look alike come from different tables or passages of the source. Marks after values point to notes of the source that are not given here.

How the values were obtained:
[1] = Pharmacokinetics study in rabbits after oral Panax notoginseng extract with or without Borneol (plasma, SPE-HPLC-MS); format: in vivo, New Zealand rabbits; settings: for half-life: read-out: t 1/2β; for AUC(0-inf) / AUC(0-t): po
Description: Liquid chromatography was carried out on an Agilent 1100 HPLC system with an auto sampler, a quaternary pump and a vacuum degasser (Waldoboro, Frankfurt, Germany). Operations were controlled by Agilent Chemstation 4.2 software (Littleforts, Philadelphia, USA). Separations were achieved on a reversed-phase HPLC column (Zorbax SB-C18 150 × 2.1 mm, 5.0 μm particle size). A solution of acetonitrile and water (V : V, 20 : 80) with 0.1% (V : V) ammonium formate was used as the mobile phase. The flow rate was set at 0.3 mL·min^−1 and the column temperature was 25°C. Under these conditions, NGR1, GRg1, and GRe in plasma samples were separated efficiently without any interferences.
MS^n detection was performed on an Agilent SL trap MS system (Waldoboro, Frankfurt, Germany). The ion source-dependent (electrospray ionization) conditions were the same for all analyses with a spraying voltage of −4500 V in the negative ion mode. The pressure of the nebulizing gas (nitrogen) was set at 35 p.s.i. The flow rate of the drying gas (nitrogen) was set at 7.0 L·min^−1 with the temperature of 325°C. The collision gas (He) for the MS^n mode at trap was set at flow of 4 (instrument unit). The voltage of the capillary was set at 4000 V, and its end plate offset was −500 V. Scan range was from 500 to 1500 m/z.
Frozen plasma and tissue samples were thawed in a water bath at 37°C and were then vortexed followed by centrifuging at 5000 r·min^−1 for 5 min. An aliquot of 1.0 mL of the supernatant from each sample was loaded onto C18 Bond Elute Solid phase extraction (SPE) cartridges (1000 mg, 1 cc reservoir, Varian, Harbor City, CA, USA) pretreated with 2.0 mL hexane, isopropanol, methanol, and water, sequentially. The SPE cartridges were then washed with 1.0 mL water, 20% methanol/water solution, 40% methanol/water solution, and 60% methanol/water solution, sequentially. Finally, analytes were eluted twice with 1.0 mL of 70% methanol/water solution. The eluant was evaporated to dryness under nitrogen. The residues were then reconstituted in 1.0 mL mobile phase. An aliquot of 10 μL was injected into the LC-MS system.
Eighteen rabbits were randomly divided into three groups of 6 subjects and were orally given 3.0 mL·kg^−1 normal saline, 3.0 mL·kg^−1 Panax notoginseng extract, and 3.0 mL·kg^−1 Panax notoginseng extract combined with Borneol, respectively. Plasma samples were collected in heparinized tubes from the central ear artery at 0.0, 5.0, 10.0, 20.0, 30.0, 45.0, 60.0, 75.0, 90.0, 120.0, 180.0, 300.0 and 480.0 min after dose. After each sampling, the same volume of 0.9% saline solution was injected from the ear vein to compensate the loss of blood. The plasma obtained was frozen at −70°C for storage and was processed prior to analysis with the proposed method as described in Section 2.6.
Statistical analysis of the biological data was performed using the Student's t-test. The drug analysis system 2.0 (DAS 2.0, T.C.M., Shanghai, China) was used to calculate the pharmacokinetic parameters, such as the area under curve (AUC), the maximum plasma concentration (C max), the time needed to reach the maximum plasma concentration (t max) and the half-life of absorption, and distribution and elimination (t 1/2Ka, t 1/2α, t 1/2β).

[2] = tested on: vinblastine-selected Caco-2 cells; assay: Transport studies across Caco-2 monolayers (P app, efflux ratio); format: in vitro ADME; settings: for increase of P app (apical-to-basolateral) by Borneol / increase of P app (basolateral-to-apical) by Borneol: 200 μM Borneol, Caco-2; for P app values: Caco-2 monolayers, without Borneol; for substrate of P-gp: concluded from efflux ratio in vinblastine-selected Caco-2 cells
Description: Medium was replaced every 2-3 days. […] The vinblastine-selected Caco-2 cells were cultivated in the presence of 10 nM vinblastine to induce P-glycoprotein (P-gp) expression. […] Prior to the transport study, cytotoxicity of NGR1, GRg1, GRe, and Borneol toward Caco-2 cells was determined using MTT assays.
In transport studies, vinblastine-selected Caco-2 cells were seeded on polycarbonate filter of transwells for 18–21 days before starting transport study, and the monolayers with the transepithelial electrical resistance (TEER) values greater than 300 Ωcm^2 were used. Caco-2 monolayers were rinsed twice with Hanks' balanced salt solution (HBSS) and preincubated in HBSS at 37°C for 30 min before starting experiments. To start the experiments, 500 μM of NGR1, GRg1, and GRe in final concentrations were added to the donor side with or without 200 μM Borneol and then incubated at 37°C. […] After each sampling, 0.1 mL of HBSS was added to the receiver chamber to maintain a constant volume. All the experiments were performed five times in duplicate. The collected samples were stored at −20°C until HPLC analysis. During the above transport studies, the TEER values were also monitored before and at the end of each experiment. Apparent permeability coefficients (P app) were then calculated according to the following equation: (1) Papp=(dC/dt×V)/(A×C0), where dC/dt is the rate of the test compound appearing in the receiver chamber, V is the volume of the solution in the receiver chamber, A is the cell monolayer surface area, and C 0 is the initial concentration of the test compound added in the donor chamber.
The efflux ratio (Er) was calculated using the following equation: (2) Er=Papp(basolateral-apical)/Papp(apical-basolateral).

[3] = New Zealand, rabbit, plasma, oral 3.0 mL·kg^−1 Panax notoginseng extract
[4] = New Zealand, rabbit, plasma, oral 3.0 mL·kg^−1 Panax notoginseng extract combined with Borneol
[5] = New Zealand, rabbit, plasma, oral 3.0 mL·kg^−1 Panax notoginseng extract combined with Borneol, read-out: CL/F
[6] = New Zealand, rabbit, plasma, oral 3.0 mL·kg^−1 Panax notoginseng extract, read-out: CL/F
[7] = oral 3.0 mL·kg^−1 Panax notoginseng extract
[8] = oral 3.0 mL·kg^−1 Panax notoginseng extract combined with Borneol
[9] = Caco-2 Model, 500 μM compound, with or without 200 μM Borneol (see label)

Row | K 10 [1, 7] [min⁻¹] | K 12 [1, 7] [min⁻¹] | K 21 [1, 7] [min⁻¹] | K a [1, 7] [min⁻¹] | T lag [1, 7] [min] | V/F [1, 7] [L/kg] | t 1/2Ka [1, 7] [min] | t 1/2α [1, 7] [min] | α [1, 7] [min⁻¹] | β [1, 7] [min⁻¹] | K 10 [1, 8] | K 12 [1, 8] | K 21 [1, 8] [min⁻¹] | K a [1, 8] | T lag [1, 8] [min] | V/F [1, 8] [L/kg] | t 1/2Ka [1, 8] [min] | t 1/2α [1, 8] [min] | α [1, 8] [min⁻¹] | β [1, 8] | SMILES | also measured
1 | 0.007 ± 0.003 | 0.012 ± 0.004 | 0.011 ± 0.005 | 0.025 ± 0.004 | 0 ± 0 | 20.0 ± 4.7 | 27.7 ± 3.7 | 35.0 ± 1.9 | 0.020 ± 0.004 | 0.010 ± 0.002 | 0.005 ± 0.001 min⁻¹ | 0.022 ± 0.005** min^−1 | 0.011 ± 0.003 | 0.034 ± 0.003** min^−1 | 0.61 ± 0.47 | 31.1 ± 6.9 | 20.3 ± 4.2 | 25.2 ± 2.4 | 0.027 ± 0.008 | 0.010 ± 0.001 min⁻¹ | CC(C)=CCC[C@](C)(O[C@@H]1O[C@H](CO)[C@@H](O)[C@H](O)[C@H]1O)[C@H]1CC[C@]2(C)[C@@H]1[C@H](O)C[C@@H]1[C@@]3(C)CC[C@H](O)C(C)(C)[C@@H]3[C@@H](O[C@@H]3O[C@H](CO)[C@@H](O)[C@H](O)[C@H]3O[C@@H]3O[C@@H](C)[C@H](O)[C@@H](O)[C@H]3O)C[C@]12C [GRe, ginsenoside Re] | Cmax [1, 3]: 1920 ± 220 ng/mL; Tmax [1, 3]: 45 min; Cmax [1, 4]: 3040 ± 240 ng/mL; Tmax [1, 4]: 45 min; CL/F [1, 5]: 143 ± 54 mL/min/kg; half-life [1, 4]: 69.3 ± 15.2 min; CL/F [1, 6]: 150 ± 30 mL/min/kg; half-life [1, 3]: 69.3 ± 5.8 min; AUC(0-inf) [1, 3]: 8910 ng·h/mL; AUC(0-t) [1, 3]: 7080 ng·h/mL; AUC(0-inf) [1, 4]: 23300 ng·h/mL; AUC(0-t) [1, 4]: 8750 ng·h/mL; increase of P app (apical-to-basolateral) by Borneol [2]: 2.3 fold; increase of P app (basolateral-to-apical) by Borneol [2]: 2.4 fold; P app values [2]: less than 10^−6 cm/s; substrate of P-gp [2]: seemed not to be substrates of P-gp
2 | 0.005 ± 0.001 | 0.011 ± 0.003 | 0.012 ± 0.003 | 0.039 ± 0.004 | 0 ± 0 | 24.5 ± 4.5 | 17.8 ± 2.4 | 38.5 ± 2.5 | 0.018 ± 0.005 | 0.010 ± 0.007 | 0.003 ± 0.00 min⁻¹ | 0.025 ± 0.005** min^−1 | 0.013 ± 0.001 | 0.051 ± 0.010* min^−1 | 1.25 ± 0.34 | 35.9 ± 8.7 | 13.5 ± 4.6 | 22.3 ± 3.1 | 0.031 ± 0.011 | 0.010 ± 0.001 min⁻¹ | CC(C)=CCC[C@](C)(O[C@@H]1O[C@H](CO)[C@@H](O)[C@H](O)[C@H]1O)[C@H]1CC[C@]2(C)[C@@H]1[C@H](O)C[C@@H]1[C@@]3(C)CC[C@H](O)C(C)(C)[C@@H]3[C@@H](O[C@@H]3O[C@H](CO)[C@@H](O)[C@H](O)[C@H]3O)C[C@]12C [GRg1, ginsenoside Rg1] | Cmax [1, 3]: 2360 ± 150 ng/mL; Tmax [1, 3]: 30 min; Cmax [1, 4]: 2870 ± 340 ng/mL; Tmax [1, 4]: 30 min; CL/F [1, 5]: 119 ± 40 mL/min/kg; half-life [1, 4]: 69.3 ± 10.7 min; CL/F [1, 6]: 123 ± 67 mL/min/kg; half-life [1, 3]: 69.3 ± 12 min; AUC(0-inf) [1, 3]: 10900 ng·h/mL; AUC(0-t) [1, 3]: 8250 ng·h/mL; AUC(0-inf) [1, 4]: 27900 ng·h/mL; AUC(0-t) [1, 4]: 9090 ng·h/mL; increase of P app (apical-to-basolateral) by Borneol [2]: 2.6 fold; increase of P app (basolateral-to-apical) by Borneol [2]: 2.6 fold; P app values [2]: less than 10^−6 cm/s; substrate of P-gp [2]: seemed not to be substrates of P-gp
3 | 0.018 ± 0.005 | 0.000 ± 0.000 | 0.014 ± 0.007 | 0.060 ± 0.004 | 2.38 ± 0.49 | 27.3 ± 8.6 | 11.6 ± 2.4 | 38.5 ± 4.5 | 0.018 ± 0.008 | 0.014 ± 0.003 | 0.009 ± 0.002* min^−1 | 0.015 ± 0.005** min^−1 | 0.011 ± 0.002 | 0.037 ± 0.005** min^−1 | 1.04 ± 0.21 | 58.8 ± 6.9 | 18.8 ± 3.1 | 28.4 ± 3.2 | 0.024 ± 0.005 | 0.010 ± 0.003* min^−1 | CC(C)=CCC[C@](C)(O[C@@H]1O[C@H](CO)[C@@H](O)[C@H](O)[C@H]1O)[C@H]1CC[C@]2(C)[C@@H]1[C@H](O)C[C@@H]1[C@@]3(C)CC[C@H](O)C(C)(C)[C@@H]3[C@@H](O[C@@H]3O[C@H](CO)[C@@H](O)[C@H](O)[C@H]3O[C@@H]3OC[C@@H](O)[C@H](O)[C@H]3O)C[C@]12C [NGR1, notoginsenoside R1] | AUC0–t [1, 7]: 162.1 ± 42.7 mg/L/min; AUC0–∞ [1, 7]: 164.0 ± 51.8 mg/L/min; C max [1, 7]: 2.12 ± 0.46 mg/L; CL/F [1, 7]: 488 ± 91 mL/min/kg; T max [1, 7]: 45.0 ± 9.8 min; t 1/2β [1, 7]: 47.9 ± 8.1 min; AUC0–t [1, 8]: 306.3 ± 82.9 mg/L/min; AUC0–∞ [1, 8]: 395.3 ± 101.4 mg/L/min; C max [1, 8]: 1.62 ± 0.30 mg/L; CL/F [1, 8]: 506 ± 27 mL/min/kg; T max [1, 8]: 30.0 ± 8.0 min; t 1/2β [1, 8]: 69.3 ± 5.2 min; increase of P app (apical-to-basolateral) by Borneol [2]: 2.9 fold; increase of P app (basolateral-to-apical) by Borneol [2]: 2.9 fold; P app (apical to basolateral) [2, 9]: 0.64 ± 0.08 × 10^−7 cm/s; P app (basolateral to apical) [2, 9]: 0.68 ± 0.12 × 10^−7 cm/s; P app values [2]: less than 10^−6 cm/s; substrate of P-gp [2]: seemed not to be substrates of P-gp; E r ([2]; efflux ratio P app(basolateral-apical)/P app(apical-basolateral), with or without 200 μM Borneol (see label)): 1.06
